The values below come from patent publication US20240383908A1, “SYNTHESIS AND APPLICATION OF PHOSPHATASE DEGRADER” (HINOVA PHARMACEUTICALS INC., priority 2021, published 2024).

Molecules are shown by their SMILES. Counter-ions that a name gives are not always drawn.

For this assay, the target named is T1, SHP2 protein (Homo sapiens, UniProt Q06124).
T1 sequence (Q06124 1-593): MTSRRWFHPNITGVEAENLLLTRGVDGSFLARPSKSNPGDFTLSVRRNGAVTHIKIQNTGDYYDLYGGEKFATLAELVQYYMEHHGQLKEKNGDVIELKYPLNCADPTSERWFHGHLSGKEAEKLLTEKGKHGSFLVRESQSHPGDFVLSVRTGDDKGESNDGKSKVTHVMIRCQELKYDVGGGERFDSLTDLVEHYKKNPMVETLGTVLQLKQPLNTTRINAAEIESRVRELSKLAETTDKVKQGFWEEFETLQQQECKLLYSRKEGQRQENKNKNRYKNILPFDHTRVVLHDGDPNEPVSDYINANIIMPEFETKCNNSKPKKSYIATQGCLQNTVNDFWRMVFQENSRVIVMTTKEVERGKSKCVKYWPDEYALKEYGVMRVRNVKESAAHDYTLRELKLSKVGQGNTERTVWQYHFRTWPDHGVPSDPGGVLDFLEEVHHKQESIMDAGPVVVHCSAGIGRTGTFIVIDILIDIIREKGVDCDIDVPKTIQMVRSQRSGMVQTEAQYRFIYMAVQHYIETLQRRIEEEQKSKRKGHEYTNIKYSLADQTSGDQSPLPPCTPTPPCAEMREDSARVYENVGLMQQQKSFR
Description: Degradation activity on SHP2 protein in MIA Paca-2 cells (Western blot, DC50). The format is cell-based. Also noted: endogenous in cells; host or cells: MIA Paca-2 cells. The settings on record: read-out: Degradation activity for differenct cell lines MIA Paca-2 (DC50). An outline of the steps: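 Cells were treated 24 h at 37 °C with compound (0.1–100 nM final, 0.1% DMSO). SHP2 was measured by Western blot with GAPDH as loading control, densitometry normalized to DMSO (100%). DC50, the concentration giving 50% degradation, came from a dose-response fit.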
In general terms: Immunoblotting shows a protein as a band on a membrane.

The term DC50 denotes the concentration giving 50% degradation. In the case of `Cc1cc(C2=CCN(C3CCN(c4ccc(C(=O)Nc5cccc(Sc6cnc(N7CCC8(CC7)CO[C@@H](C)[C@H]8N)cn6)c5)cc4F)CC3)CC2)ncc1C(=O)NCc1ccc2c(c1)CN(C1CCC(=O)NC1=O)C2=O` (stereo partly shown) [Compound 488], the DC50 was less than 100 nM.

For `C[C@@H]1OCC2(CCN(c3cnc(Sc4cccc(NC(=O)c5cccc(CN6CCN(c7ccc8c(c7)CN(C7CCC(=O)NC7=O)C8=O)CC6)c5)c4)cn3)CC2)[C@@H]1N` (stereo partly shown) [Compound 297], the DC50 is greater than 1000 nM.

Turning to `C[C@@H]1OCC2(CCN(c3cnc(Sc4cccc(NC(=O)c5ccc(N6CCC(N7CC=C(c8ccc(C(=O)NCc9ccc%10c(c9)CN(C9CCC(=O)NC9=O)C%10=O)nc8F)CC7)CC6)c(F)c5)c4)cn3)CC2)[C@@H]1N` (stereo partly drawn) [Compound 483, 1′-(1-(4-((3-((5-((3S,4S)-4-amino-3-methyl-2-oxa-8-azaspiro[4.5]decan-8-yl)pyrazin-2-yl)thio)phenyl)aminoformyl)-2-fluorophenyl)piperidin-4-yl)-N-((2-(2,6-dioxopiperidin-3-yl)-1-oxoisoindol-5-yl)methyl)-2-fluoro-1′,2′,3′,6′-tetrahydro-[3,4′-bipyridine]-6-formamide hydrochloride], the DC50 is less than 100 nM.

As to `C[C@@H]1OCC2(CCN(c3cnc(Sc4cccc(NC(=O)C5CC(N6CC=C(c7ccc(C(=O)NCc8ccc9c(c8)CN(C8CCC(=O)NC8=O)C9=O)nc7)CC6)C5)c4)cn3)CC2)[C@@H]1N` (stereo partly shown) [Compound 477], the DC50 was less than 100 nM.

`CC1(N)CCN(c2cnc(Sc3cccc(NC(=O)c4ccc(N5CCC(N6CCN(c7ccc(C(=O)NCc8ccc9c(c8)CN(C8CCC(=O)NC8=O)C9=O)cc7F)CC6)CC5)c(F)c4)c3)cn2)CC1` (stereo not shown) [Compound 499]: the DC50 was less than 100 nM.

As for `NC1CCN(c2cnc(Sc3cccc(NC(=O)c4ccc(N5CCC(N6CC=C(c7ccc(C(=O)NCc8ccc9c(c8)CN(C8CCC(=O)NC8=O)C9=O)nc7)CC6)CC5)cc4)c3)cn2)CC1F` (stereo not shown) [Compound 337], the DC50 is less than 100 nM.

Take `CC1(N)CCN(c2cnc(Sc3cccc(NC(=O)c4cnc(N5CCC(N6CC=C(c7ccc(C(=O)NCc8ccc9c(c8)CN(C8CCC(=O)NC8=O)C9=O)nc7)CC6)CC5)cn4)c3)cn2)CC1` (stereo not shown) [Compound 430]: the DC50 was 100 to 1000 nM.

Consider `CC1(N)CCN(c2cnc(Sc3cccc(NC(=O)c4ccc(N5CCC(N6CC=C(c7ncc(C(=O)NCc8ccc9c(c8)CN(C8CCC(=O)NC8=O)C9=O)o7)CC6)CC5)c(F)c4)c3)cn2)CC1` (stereo not shown) [Compound 417], for which the DC50 is greater than 1000 nM.

Consider `CC1(N)CCN(c2cnc(Sc3cccc(NC(=O)c4ccc(N5CCC(N6CC=C(c7cnc(C(=O)NCc8ccc9c(c8)CN(C8CCC(=O)NC8=O)C9=O)c(Cl)c7)CC6)CC5)c(F)c4)c3)cn2)CC1` (stereo not shown) [Compound 413], for which the DC50 is less than 100 nM.

`CC1(N)CCN(c2cnc(Sc3cccc(NC(=O)COc4ccc(N5CCN(c6ccc(C(=O)NCc7ccc8c(c7)CN(C7CCC(=O)NC7=O)C8=O)nn6)CC5)cc4)c3)cn2)CC1` (stereo not shown) [Compound 265]: the DC50 is less than 100 nM.

In the case of `C[C@@H]1OCC2(CCN(c3cnc(Sc4cccc(NC(=O)c5ccc(N6CCC(N7CC=C(c8ccc(C(=O)NCc9ccc%10c(c9)CN(C9CCC(=O)NC9=O)C%10=O)nn8)CC7)CC6)cc5)c4)cn3)CC2)[C@@H]1N` (stereo partly shown) [Compound 328], the DC50 was less than 100 nM.

For `CC1(N)CCN(c2cnc(Sc3cccc(NC(=O)c4ccc(N5CCC(N6CCN(c7nnc(C(=O)NCc8ccc9c(c8)CN(C8CCC(=O)NC8=O)C9=O)cc7Cl)CC6)CC5)cc4F)c3)cn2)CC1` (stereo not shown) [Compound 494], the DC50 is less than 100 nM.

For `CC1(N)CCN(c2cnc(Sc3cccc(NC(=O)c4ccc(N5CCC(N6CC=C(c7ccc(C(=O)NCc8ccc9c(c8)CN(C8CCC(=O)NC8=O)C9=O)nc7)CC6)CC5)nc4)c3)cn2)CC1` (stereo not shown) [Compound 324], the DC50 was less than 100 nM.

In the case of `CC1(N)CCN(c2cnc(Sc3cccc(NC(=O)c4cnc(N5CCC(N6CCN(c7ccc(C(=O)NCc8ccc9c(c8)CN(C8CCC(=O)NC8=O)C9=O)nn7)CC6)CC5)cn4)c3)cn2)CC1` (stereo not shown) [Compound 509], the DC50 was less than 100 nM.

As to `C[C@@H]1OCC2(CCN(c3cnc(Sc4cccc(NC(=O)c5ccc(C6CC(N7CC=C(c8ccc(C(=O)NCc9ccc%10c(c9)CN(C9CCC(=O)NC9=O)C%10=O)nc8)CC7)C6)cc5)c4)cn3)CC2)[C@@H]1N` (stereo partly shown) [Compound 504], the DC50 is less than 100 nM.

With `COc1nc(C2=CCN(C3CCN(c4ccc(C(=O)Nc5cccc(Sc6cnc(N7CCC(C)(N)CC7)cn6)c5)cc4)CC3)CC2)ccc1C(=O)NCc1ccc2c(c1)CN(C1CCC(=O)NC1=O)C2=O` (stereo not shown) [Compound 338], the DC50 was less than 100 nM.

On to `CC1(N)CCN(c2cnc(Sc3cccc(NC(=O)c4ccc(N5CCC(N6CC=C(c7ccc(C(=O)Nc8ccc9c(c8)CN(C8CCC(=O)NC8=O)C9=O)nc7)CC6)CC5)cc4)c3)cn2)CC1` (stereo not shown) [Compound 313], for which the DC50 was less than 100 nM.

Take `CC1(N)CCN(c2cnc(Sc3cccc(NC(=O)c4ccc(N5CCC(N6CCN(c7nnc(C(=O)NCc8ccc9c(c8)CN(C8CCC(=O)NC8=O)C9=O)cc7Cl)CC6)CC5)cc4)c3)cn2)CC1` (stereo not shown) [Compound 491]: the DC50 is greater than 1000 nM.

In the case of `CC1(N)CCN(c2cnc(Sc3cccc(NC(=O)C4CC45CCN(c4ccc(CN6CCN(c7ccc8c(c7)CN(C7CCC(=O)NC7=O)C8=O)CC6)cc4F)CC5)c3)cn2)CC1` (stereo not shown) [Compound 272], the DC50 was greater than 1000 nM.

In the case of `C[C@@H]1OCC2(CCN(c3cnc(Sc4cccc(NC(=O)c5ccc(N6CCC(N7CC=C(c8ccc(C(=O)NCc9ccc%10c(c9)CN(C9CCC(=O)NC9=O)C%10=O)nn8)CC7)C6)cc5)c4)cn3)CC2)[C@@H]1N` (stereo partly shown) [Compound 520], the DC50 is less than 100 nM.

With `CC1(N)CCN(c2ccc(-c3cccc(NC(=O)c4ccc(N5CCC(N6CC=C(c7ccc(C(=O)NCc8ccc9c(c8)CN(C8CCC(=O)NC8=O)C9=O)nn7)CC6)CC5)cc4)c3)cn2)CC1` (stereo not shown) [Compound 408], the DC50 was greater than 1000 nM.

As to `C[C@@H]1OCC2(CCN(c3cnc(Sc4cccc(NC(=O)c5ccc(N6CCC(N7CC=C(c8cnc(C(=O)NCc9ccc%10c(c9)CN(C9CCC(=O)NC9=O)C%10=O)cc8Cl)CC7)CC6)c(F)c5)c4)cn3)CC2)[C@@H]1N` (stereo partly shown) [Compound 460], the DC50 is less than 100 nM.

For `Cc1cc(C(=O)Nc2cccc(Sc3cnc(N4CCC(C)(N)CC4)cn3)c2)ccc1N1CCC(N2CC=C(c3cnc(C(=O)NCc4ccc5c(c4)CN(C4CCC(=O)NC4=O)C5=O)c(Cl)c3)CC2)CC1` (stereo not shown) [Compound 440], the DC50 is greater than 1000 nM.

With `CC1(N)CCN(c2cnc(Sc3cccc(NC(=O)c4ccc(N5CCC(N6CC=C(c7ccc(C(=O)NCc8ccc9c(c8)CN(C8CCC(=O)NC8=O)C9=O)nc7F)CC6)CC5)cc4)c3)cn2)CC1` (stereo not shown) [Compound 481], the DC50 was less than 100 nM.

As to `CC1(N)CCN(c2cnc(Sc3cccc(NC(=O)C4CCC(N5CCC(N6CC=C(c7ccc(C(=O)NCc8ccc9c(c8)CN(C8CCC(=O)NC8=O)C9=O)nc7)CC6)C(F)C5)CC4)c3)cn2)CC1` (stereo not shown) [Compound 420], the DC50 was less than 100 nM.

Consider `Cc1cc(C(=O)Nc2cccc(Sc3cnc(N4CCC(C)(N)CC4)cn3)c2)ccc1N1CCC(N2CC=C(c3ccc(C(=O)NCc4ccc5c(c4)CN(C4CCC(=O)NC4=O)C5=O)nc3F)CC2)CC1` (stereo not shown) [Compound 469], for which the DC50 lay within 100 to 1000 nM.

In the case of `CC1(N)CCN(c2cnc(Sc3cccc(NC(=O)CCN4CC5(CCC(OCCNc6ccc(C(=O)NCc7ccc8c(c7)CN(C7CCC(=O)NC7=O)C8=O)nn6)CC5)C4)c3)cn2)CC1` (stereo not shown) [Compound 214], the DC50 is greater than 1000 nM.

Turning to `CC1(N)CCN(c2cnc(Sc3cccc(NC(=O)C4CC(N5CCC(N6CC=C(c7ccc(C(=O)Nc8ccc9c(c8)CN(C8CCC(=O)NC8=O)C9=O)nn7)CC6)CC5)C4)c3)cn2)CC1` (stereo not shown) [Compound 310], the DC50 was less than 100 nM.

As to `CC1(N)CCN(c2cnc(Sc3cccc(NC(=O)c4ccc(N5CCC(N6CCC(c7ccc(C(=O)NCc8ccc9c(c8)CN(C8CCC(=O)NC8=O)C9=O)nc7)CC6)CC5)cc4)c3)cn2)CC1` (stereo not shown) [Compound 372], the DC50 is less than 100 nM.

As to `CC1(N)CCN(c2cnc(Sc3cccc(NC(=O)C4CC5(C4)CC(N4CC=C(c6ccc(C(=O)NCc7ccc8c(c7)CN(C7CCC(=O)NC7=O)C8=O)nn6)CC4)C5)c3)cn2)CC1` (stereo not shown) [Compound 311], the DC50 is greater than 1000 nM.

Regarding `CC1(N)CCN(c2cnc(Sc3cccc(NC(=O)C4CC45CCC(N4CC=C(c6ccc(C(=O)Nc7ccc8c(c7)CN(C7CCC(=O)NC7=O)C8=O)nn6)CC4)CC5)c3)cn2)CC1` (single isomer, unassigned) [Compound 320], the DC50 is greater than 1000 nM.

Regarding `C[C@@H]1OCC2(CCN(c3cnc(Sc4cccc(NC(=O)c5ccc(N6CCC(N7CCN(c8ccc(C(=O)NCc9ccc%10c(c9)CN(C9CCC(=O)NC9=O)C%10=O)cc8F)CC7)CC6)c(F)c5)c4)cn3)CC2)[C@@H]1N` (stereo partly shown) [Compound 515], the DC50 is less than 100 nM.

For the compound `C[C@@H]1OCC2(CCN(c3cnc(Sc4cccc(NC(=O)CCCN5CCN(c6ccc(C(=O)NCc7ccc8c(c7)C(=O)N(C7CCC(=O)NC7=O)C8)nn6)CC5)c4)cn3)CC2)[C@@H]1N` (stereo partly shown) [Compound 262], the DC50 is greater than 1000 nM.

Consider `CC1(N)CCN(c2cnc(Sc3cccc(NC(=O)CCCCCOc4ccc(-c5ccc(C(=O)NCc6ccc7c(c6)CN(C6CCC(=O)NC6=O)C7=O)nc5)cc4)c3)cn2)CC1` (stereo not shown) [Compound 213], for which the DC50 is greater than 1000 nM.
